From PMC11802874, “The hypolipidemic effect of MI-883, the combined CAR agonist/ PXR antagonist, in diet-induced hypercholesterolemia model” (Nature Communications, 2025)
Several values for one entry are separate records, joined by “and”; a condition that tells them apart may be missing. Equal entries are not always repeated.

Columns and labels:
[1] = test system: FXR, LXRα, LXRβ, THα, GRα, PPARα, PPARδ/β, PPARγ, AhR, VD, ERα, ERβ, mouse Car; experiment: Nuclear receptor luciferase reporter panel (statements on the whole panel); format: cell-based
Description: (see Supplementary Chapter 7).
Thank you for the insightful question and comment. We have corrected the sentence to read:
Thank you for the idea. Yes, we conducted luciferase reporter assays in antagonistic "mode" for several nuclear receptors using their prototype ligands in the revised manuscript (Figure R7).
This information is included in the Supplementary Information.
Treatment with 5 and 10 µM
(1 picture or pasted object on this page, not shown here) […]
nM dexamethasone, 10 µM GW3965 (LXRα agonist), and 10 µM estradiol. Data are presented as a […]

[2] = Stability in human plasma; format: in vitro ADME; conditions: plasma (legend: pooled human serum), read-out: Stability in human plasma, t1/2
Method: Plasma protein binding, and stability in human and mouse plasma have been tested as previously described. Supplementary Figure 1. […] Four time points over 120 minutes have been analyzed. […] Compounds were tested in triplicate with or without NADPH.

[3] = target: VD (Homo sapiens, UniProt P11473); experiment: Luciferase reporter gene assay VD receptor, HepG2
Chain of VD (P11473 127-423 limits assumed): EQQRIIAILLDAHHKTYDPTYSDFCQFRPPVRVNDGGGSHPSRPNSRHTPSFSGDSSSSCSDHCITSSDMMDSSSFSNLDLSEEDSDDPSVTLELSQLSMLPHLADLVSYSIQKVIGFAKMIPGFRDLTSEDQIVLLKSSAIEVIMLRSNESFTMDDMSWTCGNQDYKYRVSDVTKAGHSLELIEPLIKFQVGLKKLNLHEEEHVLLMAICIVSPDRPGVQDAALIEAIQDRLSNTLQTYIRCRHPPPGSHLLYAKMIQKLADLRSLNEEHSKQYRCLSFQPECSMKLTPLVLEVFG
Description: The luciferase reporter gene assays for FXR, LXRα, LXRβ, THα, GRα, PPARα, PPARδ/β, PPARγ, AhR, VD, ERα, ERβ and mouse Car are described in our recent paper[19]
Gal4-LBD constructs of tested nuclear receptors have been used together with pGL4.31[luc2P/GAL4UAS/Hygro] luciferase reporter construct and pRL-TK Renilla expression vector (both from Promega, Hercules, USA) in HepG2 cells transfected with Lipofectamine 2000 or 3000 reagents. For GRα and FXR receptors, full-length expression vectors have been used with pGRE-luc or pFXRE-luc luciferase constructs. For the aryl hydrocarbon receptor (AhR), p1A1-luc construct was used with only pRL-TK vector for transfection normalization. A dual reporter assay (Promega, Hercules, USA) was used to analyze both firefly and Renilla luciferase activities.
Gal4-LBD constructs of tested nuclear receptors have been used together with pGL5-luc luciferase reporter construct and pRL-TK Renilla expression vector in HepG2 cells transfected with Lipofectamine 2000 or 3000 reagents. For GRα and FXR receptors, full-length expression vectors have been used with pGRE-luc or pFXRE-luc luciferase constructs. For the aryl hydrocarbon receptor (AhR), p1A1-luc construct was used with only pRL-TK vector for transfection normalization. […] Bars represent means±S.D. (n=3).

[4] = target: hERG potassium channel (Homo sapiens, UniProt Q12809); experiment: Thallium flux FLIPR-based hERG assay; format: cell-based
Chain of hERG potassium channel (Q12809 whole entry): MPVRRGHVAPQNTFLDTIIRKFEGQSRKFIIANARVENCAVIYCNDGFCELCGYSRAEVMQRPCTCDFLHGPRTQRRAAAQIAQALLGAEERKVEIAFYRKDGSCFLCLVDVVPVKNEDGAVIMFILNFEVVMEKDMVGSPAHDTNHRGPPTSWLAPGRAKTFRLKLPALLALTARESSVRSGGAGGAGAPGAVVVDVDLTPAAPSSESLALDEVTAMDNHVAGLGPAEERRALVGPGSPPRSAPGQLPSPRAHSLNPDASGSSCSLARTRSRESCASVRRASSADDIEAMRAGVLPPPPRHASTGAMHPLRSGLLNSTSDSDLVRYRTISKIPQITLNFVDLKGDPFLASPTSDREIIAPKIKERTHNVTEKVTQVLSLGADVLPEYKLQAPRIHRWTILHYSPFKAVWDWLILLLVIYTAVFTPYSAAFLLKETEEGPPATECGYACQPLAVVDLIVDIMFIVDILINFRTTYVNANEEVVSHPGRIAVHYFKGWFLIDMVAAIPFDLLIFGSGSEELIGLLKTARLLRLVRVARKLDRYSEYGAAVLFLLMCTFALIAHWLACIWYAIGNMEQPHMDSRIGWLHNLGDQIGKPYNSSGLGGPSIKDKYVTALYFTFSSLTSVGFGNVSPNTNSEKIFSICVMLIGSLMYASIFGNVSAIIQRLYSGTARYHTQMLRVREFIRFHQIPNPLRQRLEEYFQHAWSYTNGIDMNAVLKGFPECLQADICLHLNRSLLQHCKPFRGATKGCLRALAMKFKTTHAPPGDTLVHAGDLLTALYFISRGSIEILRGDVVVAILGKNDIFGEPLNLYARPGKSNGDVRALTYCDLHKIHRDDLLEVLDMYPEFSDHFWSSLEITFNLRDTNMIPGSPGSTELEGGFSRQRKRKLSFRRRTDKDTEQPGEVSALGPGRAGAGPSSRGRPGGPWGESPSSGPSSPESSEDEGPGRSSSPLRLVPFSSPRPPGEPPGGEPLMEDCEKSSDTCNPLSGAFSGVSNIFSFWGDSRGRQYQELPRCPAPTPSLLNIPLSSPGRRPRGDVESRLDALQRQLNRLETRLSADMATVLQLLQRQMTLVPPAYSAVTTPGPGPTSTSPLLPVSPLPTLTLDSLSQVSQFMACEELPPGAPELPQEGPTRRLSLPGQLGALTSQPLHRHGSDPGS
Description: Thallium flux FLIPR-based assay for the identification of hERG potassium channel inhibition

[5] = test system: 3D primary human hepatocyte spheroids; experiment: RT-qPCR mRNA expression in 3D primary human hepatocyte spheroids; format: cell-based; conditions: for CYP2B6 fold change, 3D PHH spheroids, mean of donors / CYP3A4 fold change, 3D PHH spheroids, mean of donors: MI-883 (5 uM)
Method: Briefly, PHHs were cultivated for 6 days to generate compact spheroids by spontaneous self-aggregation and then half of PHH medium was exchanged for FBS-free PHH medium. 3D PHHs were treated with MI-883 (5 μM) commenced from day 8 within a time range of 8–120 h (time points were 8, 12, 24, 48, 72, and 120 h). Conditioned FBS-free PHH medium was changed every 2–3 days of the treatment. […] Data are presented as the mean ± SD of fold change expression gained from 3D spheroids of three different donors. ATP assay has been performed as described.

[6] = target: T1, Human recombinant CYP3A4 (Homo sapiens, UniProt P08684); experiment: CYP450-Glo CYP3A4 enzymatic activity assay; format: biochemical; conditions: for Inhibition assays, CYP3A4 activity (replicates): log[Agonist]
T1 construct: purchased Promega; host or cells: baculovirus-infected insect cells
T1 sequence (P08684 whole entry): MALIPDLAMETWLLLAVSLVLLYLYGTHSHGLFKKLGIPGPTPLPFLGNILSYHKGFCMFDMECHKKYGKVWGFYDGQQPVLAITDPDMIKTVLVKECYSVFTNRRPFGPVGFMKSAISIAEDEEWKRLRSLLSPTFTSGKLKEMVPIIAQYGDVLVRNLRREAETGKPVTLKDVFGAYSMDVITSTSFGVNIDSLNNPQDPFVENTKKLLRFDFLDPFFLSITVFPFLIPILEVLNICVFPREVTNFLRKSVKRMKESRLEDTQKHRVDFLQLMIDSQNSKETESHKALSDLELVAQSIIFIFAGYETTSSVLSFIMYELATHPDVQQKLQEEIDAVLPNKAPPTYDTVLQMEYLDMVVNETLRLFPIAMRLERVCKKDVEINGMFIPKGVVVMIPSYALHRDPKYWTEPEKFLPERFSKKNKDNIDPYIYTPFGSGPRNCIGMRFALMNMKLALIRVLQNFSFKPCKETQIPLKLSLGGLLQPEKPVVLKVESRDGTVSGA
Description: Data are presented as means±S.D. from three independent measurements.

[7] = target: T2, human PXR (Homo sapiens, UniProt O75469); experiment: PXR-dependent CYP3A4 reporter gene assay in H-P cells; format: cell-based; design: expressed in transfected cells; host or cells: H-P cells (HepG2 stably transfected with pcDhPXR)
T2 sequence (O75469 1-434): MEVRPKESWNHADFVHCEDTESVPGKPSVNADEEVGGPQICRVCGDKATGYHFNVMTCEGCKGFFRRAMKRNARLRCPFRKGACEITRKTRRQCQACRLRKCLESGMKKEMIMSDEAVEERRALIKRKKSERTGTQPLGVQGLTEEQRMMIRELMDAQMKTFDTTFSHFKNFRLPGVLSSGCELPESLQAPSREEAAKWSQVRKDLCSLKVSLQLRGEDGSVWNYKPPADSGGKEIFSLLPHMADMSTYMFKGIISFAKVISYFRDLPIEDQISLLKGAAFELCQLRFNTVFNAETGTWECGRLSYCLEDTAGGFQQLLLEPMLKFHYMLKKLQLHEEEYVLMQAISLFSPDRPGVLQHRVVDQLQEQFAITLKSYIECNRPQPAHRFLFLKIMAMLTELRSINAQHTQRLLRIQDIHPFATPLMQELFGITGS
Method: Luciferase reporter gene assays in PXR expressing H-P cells and mammalian two-hybrid reporter assays have been performed as described before[55],[57].
We also analyzed PXR-dependent CYP3A4 reporter gene assays in H-P cells, which represent HepG2 cells stably over-expressing human PXR, due to transfection of PXR expression plasmid pcDhPXR^5. […] 0.01 µg Metridia luciferase expression plasmid pMetLuc2control per well was included.

[8] = target: T3, human PXR LBD (Homo sapiens, UniProt O75469); experiment: PXR LBD assembly assay in HepG2 cells; format: cell-based
T3 construct: helix 1 part of the LBD of PXR (residues 132–188); helices 2-12 of the PXR-LBD (residues 189-434); expressed in transfected cells; host or cells: HepG2
Description: A human PXR LBD assembly assay (Fig. 1k) was done with expression plasmids encoding fusion protein of GAL4-DNA binding domain (DBD) and helix 1 part of the LBD of PXR (residues 132–188) and fusion protein of VP16 activation domain (AD) and helices 2-12 of the PXR-LBD (residues 189-434), respectively, which have all been described previously. Metridia luciferase expression plasmid pMetLuc2control was obtained by Takara-Clontech (Mountain View, CA, USA). Transient batch transfection of HepG2 cells was done in 96-well plates using Jet-PEI transfection reagent (Polyplus, Illkirch, France), as described previously. The following amounts of plasmid DNA per well were used: 0.24 µg pGL4-G5 and 0.03 µg each of expression plasmids encoding GAL4-DBD/PXR(132-188) and VP16-AD/PXR(189-434). All transfections included 0.01 µg pMetLuc2control per well for normalization of firefly luciferase reporter activities. After overnight incubation with the transfection mixtures, cells were treated with chemicals in a volume of 100 µl of cell culture medium. […] Firefly luciferase activity was measured in 10 µl of cell lysates, and Metridia luciferase activity was analyzed in 10 µl of medium supernatant, both as described before. Results were normalized by dividing firefly luciferase activity by Metridia luciferase activity measured from the same well.

Question: For `NC(=O)c1cc(Cn2cc(-c3c(-c4ccc(Cl)cc4)nc4cc(F)ccn34)nn2)ccc1Cl` [MI-883, 2-chloro-5-((4-(2-(4-chlorophenyl)-7-fluoroimidazo[1,2-a]pyridin-3-yl)-1H-1,2,3-triazol-1-yl)methyl)benzamide], which “interactions with other tested nuclear receptors (agonist mode)” value ([1]; 10 µM, 24 h, HepG2) is on record?
Answer: Its value is “no other interactions”.

Question: And the “inhibition of other nuclear receptors, antagonistic mode (FXR, THα, AhR, PPARα, PPARγ, GR, LXRα)” value ([1]; 5 and 10 μM with prototype ligands)?
Answer: Its value is “not inhibit the other nuclear receptors”.

Question: And the half-life at 1 µM [2]?
Answer: The half-life at 1 µM was over 2 h.

Question: What about the “NRs assays: VDR (relative to ctrl, replicates)” value [3] of the same compound?
Answer: Its value is 0.7 and 0.81 and 0.9.

Question: And the “hERG IC50” value [4]?
Answer: Its value is “could not be defined”.

Question: And the “hERG assay, inhibition of hERG potassium channel activity” value [4]?
Answer: Its value is “no significant inhibition up to 100 µM”.

Question: What about the “proliferative biomarkers MDM2, PCNA, FOXM1 in 3D human hepatocyte spheroid” value ([5]; 72 h) of the same compound?
Answer: Its value is “no significant effects”.

Question: And the “CYP2B6 fold change, 3D PHH spheroids, mean of donors” value (shortened to “CYP2B6 fold change, 3D PHH spheroids”) ([5]; 8 h)?
Answer: Its value is 1.9.

Question: And the “CYP3A4 fold change, 3D PHH spheroids, mean of donors” value (shortened to “CYP3A4 fold change, 3D PHH spheroids”) ([5]; 8 h)?
Answer: The value was 0.9.

Question: And the “CYP2B6 fold change, 3D PHH spheroids” value ([5]; 12 h)?
Answer: The value was 3.0.

Question: And the “CYP3A4 fold change, 3D PHH spheroids” value ([5]; 12 h)?
Answer: Its value is 0.7.

Question: And the “CYP2B6 fold change, 3D PHH spheroids” value ([5]; 24 h)?
Answer: The value was 5.1.

Question: And the “CYP3A4 fold change, 3D PHH spheroids” value ([5]; 24 h)?
Answer: The value was 0.8.

Question: What about the “CYP2B6 fold change, 3D PHH spheroids” value ([5]; 48 h) of the same compound?
Answer: The value was 8.0.

Question: What about the “CYP3A4 fold change, 3D PHH spheroids” value ([5]; 48 h) of the same compound?
Answer: The value was 1.0.

Question: What about the “CYP2B6 fold change, 3D PHH spheroids” value ([5]; 72 h) of the same compound?
Answer: Its value is 8.2.

Question: And the “CYP3A4 fold change, 3D PHH spheroids” value ([5]; 72 h)?
Answer: The value was 0.8.

Question: What about the “CYP2B6 fold change, 3D PHH spheroids” value ([5]; 120 h) of the same compound?
Answer: Its value is 6.7.

Question: What about the “CYP3A4 fold change, 3D PHH spheroids” value ([5]; 120 h) of the same compound?
Answer: The value was 0.7.

Question: What about the “inhibition of CYP3A4 activity” value [6] of the same compound?
Answer: The value was “weak inhibitor”.

Question: What about the “Inhibition assays, CYP3A4 activity (replicates)” value (shortened to “Inhibition assays”) ([6]; M 0) of the same compound?
Answer: The value was 106 and 134.

Question: What about the “Inhibition assays” value ([6]; M 0.5) of the same compound?
Answer: Its value is 69 and 79 and 81.

Question: And the “Inhibition assays” value ([6]; M 1)?
Answer: The value was 66 and 67 and 61.

Question: And the “Inhibition assays” value ([6]; M -0.5)?
Answer: The value was 128 and 118 and 132.

Question: What about the “Inhibition assays” value ([6]; M -1) of the same compound?
Answer: The value was 126 and 125 and 123.

Question: And the “Inhibition assays” value ([6]; M -2)?
Answer: Its value is 89 and 124.

Question: What about the “Inhibition assays” value ([6]; M -2.5) of the same compound?
Answer: The value was 100.

Question: And the “Inhibition assays” value ([6]; M -3)?
Answer: Its value is 100.

Question: And the “Inhibition assays” value ([6]; M -3.5)?
Answer: The value was 100.

Question: What about the “Inhibition assays” value ([6]; M -4) of the same compound?
Answer: The value was 100.

Question: What about the “Inhibition assays” value ([6]; M -4.5) of the same compound?
Answer: The value was 100.

Question: What about the “PXR-dependent CYP3A4 reporter activity in H-P cells, replicates” value ([7]; 5 MI883 (µM not given), DMSO ~1) of the same compound?
Answer: Its value is 0.825 and 0.683 and 0.491.

Question: And the “PXR-dependent CYP3A4 reporter activity in H-P cells, replicates” value ([7]; 30 MI883)?
Answer: Its value is 0.49 and 0.788 and 0.597.

Question: And the “PXR-dependent CYP3A4 reporter activity in H-P cells, replicates” value ([7]; RIF + 5 MI883)?
Answer: Its value is 10.8 and 10.1 and 9.53.

Question: What about the “PXR-dependent CYP3A4 reporter activity in H-P cells, replicates” value ([7]; RIF + 10 MI883) of the same compound?
Answer: Its value is 5.74 and 6.79 and 5.06.

Question: And the “PXR-dependent CYP3A4 reporter activity in H-P cells, replicates” value ([7]; RIF + 30 MI883)?
Answer: The value was 1.18 and 2.43 and 2.32.

Question: And the “PXR-dependent CYP3A4 reporter activity in H-P cells, replicates” value ([7]; single agent: RIF (10 µM), 10 MI883)?
Answer: Its value is 0.606 and 0.813 and 0.535.

Question: What about the “PXR LBD assembly” value [8] of the same compound?
Answer: Its value is “stimulates”.
